Reference: US10472324B2, “2-cyano-3-cyclopropyl-3-hydroxy-N-aryl-thioacrylamide derivatives” (Algiax Pharmaceuticals GmbH, priority 2014, dated 2019)
pIC50: −log10 of the molar value.

Legend:
[1] = target: GABA gated Cl-channel (GABA.A receptor complex); test: GABAA receptor binding assay ([35S]TBPS radioligand); details: 3 nM [35S]TBPS, rat cerebral cortex membrane homogenates, 120 min at 22° C.
Description: GABAA Receptor Binding Assay:
The affinity of the test compounds for the GABA gated Cl-channel (GABA.A receptor complex) in the rat cerebral cortex was determined in a radioligand binding assay (Lewin et al,. 1989). Membrane homogenates of cerebral cortex are incubated for 120 min at 22° C. with 3 nM [35S]TBPS (-t-butylbicyclophosphoorothionate) in the presence and absence of the test compound.
Following incubation, the samples are filtered rapidly under vacuum through glass fiber filters and rinsed several times with ice-cold buffer using a 96-sample cell harvester. The filters are dried then counted for radioactivity in a scintilliation counter using a scintillation cocktail (Microscint 0, Packard). Each compound was tested at several concentrations to calculate the IC50 values of the affinity to the GABA.A receptor complex in cerebral cortex of rats.

human GABAA α3β3γ2 = human GABAA α3β3γ2 (Homo sapiens (Human), UniProt P18507+P28472+P34903); test: Patch clamp electrophysiology, positive modulation, HEK293 cells expressing GABAA α3β3γ2; type: cell-based; details: GABA EC20 current = 100%
From the text: (§1) Electrophysiological assays on different subunit combinations of the human GABAA receptor complex.
(§2) The functional positive modulation activity of the test compounds were investigated by using patch clamp techniques on HEK293 cells stably expressing different subunit combinations of the human GABAA receptor complex. In brief, the peak inward currents in response to the GABA (natural ligand of the GABAA receptors) additions in the presence of increasing concentrations of test compound were measured. To calculate the positive modulation activity the mean effect of GABA (EC20 concentration) was set to 100%.
(§3) A value of 100 percent equates to the compound having an effect equivalent to the addition of the EC20 concentration of GABA.

human GABAA α2β3γ2 = human GABAA α2β3γ2 (Homo sapiens (Human), UniProt P18507+P28472+P47869); test: Patch clamp electrophysiology, positive modulation, HEK293 cells expressing GABAA α2β3γ2; type: cell-based; details: GABA EC20 current = 100%
From the text: as §1, §2, §3

human GABAA α1β3γ2 = human GABAA α1β3γ2 (Homo sapiens (Human), UniProt P14867+P18507+P28472); test: Patch clamp electrophysiology, positive modulation, HEK293 cells expressing GABAA α1β3γ2; type: cell-based; details: GABA EC20 current = 100%
From the text: as §1, §2, §3

[2] = system: neuropathic pain induced by spinal nerve ligation (SNL) injury; test: SNL model or Chung model for peripheral neuropathic pain, mechanical allodynia (von Frey); type: in vivo, rat; details: for reversal of neuropathic pain induced by spinal nerve ligation: 10 mg/kg oral gavage for 5 days, rat; for 50% paw withdrawal threshold: cut-off 60 g
Description: SNL model or Chung model as in vivo model for peripheral neuropathic pain
Surgery was performed according to the method of Chung et al., 2004 (see List of References). In brief, animals are anesthetized and the hair on their backs is trimmed. Under sterile conditions, a longitudinal incision is made at the lower lumbar and sacral levels, exposing the paraspinal muscles on the left. Connective tissues and muscles are removed by a small scraper, after which bony structures become visible. The L6 vertebra left transverse process of animal was first removed to expose the L4 and L5 spinal nerves. The L5 spinal nerve was then carefully isolated and tightly ligated with 6-0 silk thread. Surgery was always performed on the left leg (Ipsilateral paw), the right leg (contralateral paw) remained intact and served as a control. On completion of the operation, hemostasis is confirmed and the muscles are sutured in layers using silk thread and the skin is closed with metal clips, anesthesia is then discontinued. Axonal degeneration occurs, with all types of axons being approximately equally affected. Pronounced mechanical allodynia follows, accompanied by spontaneous pain behaviors, which lasts for several weeks without recovery. Mechanical allodynia is typically assessed beginning 1-2 weeks post-surgery.
(§4) Mechanical allodynia thresholds were determined according to the methods described by Chaplan and colleagues (Chaplan et al., 1994). At the designated post-operative time points the injured rats were placed in an elevated clear-plastic, wire mesh-bottomed cage. After a 10- to 15-min acclimation period, eight von Frey filaments (Stoelting, Wood Dale, Ill.) with bending forces ranging from 2 to 60 g were used to determine the 50% mechanical threshold for paw withdrawal using the up-and-down method.
After spinal nerve ligation (SNL) injury, individual rats were randomly assigned into a treatment group. The following groups were used:
Group 2: SNL+ Example 1 (10 mg/kg) in vehicle by oral gavage for 5 days from DPO7 (pre-treat) till DPO12.
Group 3: SNL+ Example 2 (10 mg/kg) in vehicle by oral gavage for 5 days from DPO7 (pre-treat) till DPO12.
Group 2: SNL+ Example 3 (10 mg/kg) in vehicle by oral gavage for 5 days from DPO14 till DPO19.
Group 3: SNL+ Example 4 (10 mg/kg) in vehicle by oral gavage for 5 days from DPO14 till DPO19.
Group 4: SNL+ Example 6 (10 mg/kg) in vehicle by oral gavage for 5 days from DPO14 till DPO19.

[3] = system: acute pain induced by capsaicin injection in the hindpaw; test: Capsaicin induced pain model for acute pain, mechanical allodynia (von Frey); type: in vivo, rat; details: for reversal of acute pain induced by capsaicin injection: 1 or 10 mg/kg oral gavage, rat hindpaw
Description: as §4
Capsaicin induced pain as in vivo model for acute pain
Rats were gently restrained and capsaicin (10 μg in 10 μI of 10% Tween80) in saline was injected into the plantar surface of the hindpaw using a 0.3 ml insulin syringe with a 29-gauge needle (Terumo Europe, Belgium).
After injection of Capsaicin, individual rats were randomly assigned into a treatment group. The following groups were used:
Group 2: Capsaicin injection+ Example 1 (1 mg/kg) in vehicle by oral gavage about 40 minutes after injection.
Group 3: Capsaicin injection+ Example 3 (1 mg/kg) in vehicle by oral gavage about 40 minutes after injection.
Group 2: Capsaicin injection+ Example 2 (10 mg/kg) in vehicle by oral gavage about 40 minutes after injection.
Group 3: Capsaicin injection+ Example 6 (10 mg/kg) in vehicle by oral gavage about 40 minutes after injection.

[4] = Experiment 1, 10 mg/kg oral gavage 5 days DPO7-DPO12, at DPO35 (end of experiment)
[5] = Experiment 1, 1 mg/kg oral gavage about 40 minutes after capsaicin, 150 minutes after capsaicin injection
[6] = Experiment 1, 1 mg/kg oral gavage about 40 minutes after capsaicin, 210 minutes after capsaicin injection
[7] = Experiment 2, 10 mg/kg oral gavage about 40 minutes after capsaicin, 150 minutes after capsaicin injection
[8] = Experiment 2, 10 mg/kg oral gavage about 40 minutes after capsaicin, 210 minutes after capsaicin injection
[9] = Experiment 2, 10 mg/kg oral gavage 5 days DPO14-DPO19, after DPO21 till end of experiment at DPO35
[10] = Experiment 2, 10 mg/kg oral gavage 5 days DPO14-DPO19, at DPO21

Chain of human GABAA α3β3γ2 (P34903 29-492): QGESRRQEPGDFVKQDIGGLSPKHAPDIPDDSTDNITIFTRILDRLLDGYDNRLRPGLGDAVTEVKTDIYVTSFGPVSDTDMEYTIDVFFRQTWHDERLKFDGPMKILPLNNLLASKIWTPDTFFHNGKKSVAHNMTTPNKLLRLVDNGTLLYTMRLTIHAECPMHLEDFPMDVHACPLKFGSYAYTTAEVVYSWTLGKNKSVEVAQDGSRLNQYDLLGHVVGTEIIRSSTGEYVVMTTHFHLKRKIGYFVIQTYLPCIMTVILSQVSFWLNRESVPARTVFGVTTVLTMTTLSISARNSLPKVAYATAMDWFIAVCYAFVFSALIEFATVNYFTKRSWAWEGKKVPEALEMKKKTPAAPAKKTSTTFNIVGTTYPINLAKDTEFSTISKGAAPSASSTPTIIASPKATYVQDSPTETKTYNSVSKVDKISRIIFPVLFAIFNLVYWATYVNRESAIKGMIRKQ
Chain of human GABAA α3β3γ2 (P28472 26-473): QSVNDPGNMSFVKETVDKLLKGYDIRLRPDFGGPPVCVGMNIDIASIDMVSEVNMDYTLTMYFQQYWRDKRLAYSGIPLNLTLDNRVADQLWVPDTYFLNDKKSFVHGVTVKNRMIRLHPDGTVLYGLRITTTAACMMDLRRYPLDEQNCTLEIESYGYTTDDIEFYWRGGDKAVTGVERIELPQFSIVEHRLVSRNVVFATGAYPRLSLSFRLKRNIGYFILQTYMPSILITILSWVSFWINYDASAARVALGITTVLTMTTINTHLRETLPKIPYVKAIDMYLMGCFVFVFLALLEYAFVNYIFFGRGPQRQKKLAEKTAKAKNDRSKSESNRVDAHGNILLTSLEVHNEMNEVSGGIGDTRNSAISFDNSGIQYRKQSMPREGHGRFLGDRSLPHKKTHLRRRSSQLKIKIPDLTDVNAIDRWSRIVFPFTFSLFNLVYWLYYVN
Chain of human GABAA α3β3γ2 (P18507 40-475): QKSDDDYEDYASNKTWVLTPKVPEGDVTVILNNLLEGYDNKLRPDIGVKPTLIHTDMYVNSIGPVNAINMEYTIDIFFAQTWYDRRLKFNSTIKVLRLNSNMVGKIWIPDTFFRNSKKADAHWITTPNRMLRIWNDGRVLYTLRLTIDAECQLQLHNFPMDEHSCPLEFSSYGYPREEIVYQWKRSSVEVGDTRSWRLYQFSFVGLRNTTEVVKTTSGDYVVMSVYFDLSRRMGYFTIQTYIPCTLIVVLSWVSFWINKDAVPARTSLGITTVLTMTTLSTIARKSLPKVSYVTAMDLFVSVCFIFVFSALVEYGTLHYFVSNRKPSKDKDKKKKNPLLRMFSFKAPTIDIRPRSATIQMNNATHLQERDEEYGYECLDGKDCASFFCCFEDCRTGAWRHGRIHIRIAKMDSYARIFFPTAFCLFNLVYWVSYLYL
Chain of human GABAA α1β3γ2 (P14867 28-456): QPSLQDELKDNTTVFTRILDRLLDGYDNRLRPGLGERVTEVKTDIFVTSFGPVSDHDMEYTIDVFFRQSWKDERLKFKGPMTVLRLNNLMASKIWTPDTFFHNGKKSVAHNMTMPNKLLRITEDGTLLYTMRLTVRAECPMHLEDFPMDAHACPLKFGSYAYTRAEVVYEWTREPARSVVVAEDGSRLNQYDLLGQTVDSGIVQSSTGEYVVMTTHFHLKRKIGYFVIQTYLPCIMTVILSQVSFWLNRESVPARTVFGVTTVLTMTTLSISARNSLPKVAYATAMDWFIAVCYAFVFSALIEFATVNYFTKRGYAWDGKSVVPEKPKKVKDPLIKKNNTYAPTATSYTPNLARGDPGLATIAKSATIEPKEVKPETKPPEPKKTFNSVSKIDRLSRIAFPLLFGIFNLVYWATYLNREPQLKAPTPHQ
Chain of human GABAA α1β3γ2 (P28472 26-473): as the sequence (P28472 26-473) above
Chain of human GABAA α1β3γ2 (P18507 40-475): as the sequence (P18507 40-475) above
Chain of human GABAA α2β3γ2 (P47869 29-451): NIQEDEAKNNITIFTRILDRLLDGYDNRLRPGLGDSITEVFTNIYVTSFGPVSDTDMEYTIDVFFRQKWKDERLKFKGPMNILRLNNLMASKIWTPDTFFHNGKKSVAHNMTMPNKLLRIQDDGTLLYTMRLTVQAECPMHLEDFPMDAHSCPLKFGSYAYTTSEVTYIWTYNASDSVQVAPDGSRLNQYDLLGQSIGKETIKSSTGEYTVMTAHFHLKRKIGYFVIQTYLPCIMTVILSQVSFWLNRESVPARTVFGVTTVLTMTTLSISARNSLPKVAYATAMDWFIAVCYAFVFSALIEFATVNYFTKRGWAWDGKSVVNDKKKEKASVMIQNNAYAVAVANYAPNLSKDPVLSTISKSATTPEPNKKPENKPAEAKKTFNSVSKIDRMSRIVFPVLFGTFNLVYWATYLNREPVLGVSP
Chain of human GABAA α2β3γ2 (P28472 26-473): as the sequence (P28472 26-473) above
Chain of human GABAA α2β3γ2 (P18507 40-475): as the sequence (P18507 40-475) above

SMILES: Cc1cc(NC(=S)C(C#N)=C(O)C2CC2)ccc1C(F)(F)F [Example 1, 2-Cyano-3-cyclopropyl-3-hydroxy-N-(3-methyl-4-trifluormethyl-phenyl)-thioacrylamide]
- pIC50 [1]: 5.28
- GABAA α3β3γ2 normalized percent current (human GABAA α3β3γ2; 10 μM test compound): 697%
- GABAA α2β3γ2 normalized percent current (human GABAA α2β3γ2; 10 μM test compound): 614%
- GABAA α1β3γ2 normalized percent current (human GABAA α1β3γ2; 10 μM test compound): 792%
- reversal of neuropathic pain induced by spinal nerve ligation [2]: can reverse neuropathic pain
- 50% paw withdrawal threshold [2, 4]: 30 g
- reversal of acute pain induced by capsaicin injection [3]: can reverse acute pain
- 50% paw withdrawal threshold [3, 5]: 30 g
- 50% paw withdrawal threshold [3, 6]: ~50 g

SMILES: Cc1cc(NC(=S)C(C#N)=C(O)C2CC2)ccc1F [Example 2, 2-Cyano-3-cyclopropyl-N-(4-fluoro-3-methyl-phenyl)-3-hydroxy-thioacrylamide]
- pIC50 [1]: 5.08
- GABAA α3β3γ2 normalized percent current (human GABAA α3β3γ2; 50 μM test compound): 835%
- GABAA α2β3γ2 normalized percent current (human GABAA α2β3γ2; 50 μM test compound): 470%
- GABAA α1β3γ2 normalized percent current (human GABAA α1β3γ2; 50 μM test compound): 734%
- reversal of neuropathic pain induced by spinal nerve ligation [2]: can reverse neuropathic pain
- 50% paw withdrawal threshold ([2]; Experiment 1, 10 mg/kg oral gavage 5 days DPO7-DPO12, at DPO21): 40 g
- 50% paw withdrawal threshold [2, 4]: 40 g
- reversal of acute pain induced by capsaicin injection [3]: can reverse acute pain
- 50% paw withdrawal threshold [3, 7]: ~40 g
- 50% paw withdrawal threshold [3, 8]: ~33 g

SMILES: Cc1cc(NC(=S)C(C#N)=C(O)C2CC2)ccc1[N+](=O)[O-] [Example 3, 2-Cyano-3-cyclopropyl-3-hydroxy-N-(3-methyl-4-nitro-phenyl)-thioacrylamide]
- pIC50 [1]: 5.22
- GABAA α3β3γ2 normalized percent current (human GABAA α3β3γ2; 50 μM test compound): 469%
- GABAA α2β3γ2 normalized percent current (human GABAA α2β3γ2; 50 μM test compound): 380%
- GABAA α1β3γ2 normalized percent current (human GABAA α1β3γ2; 50 μM test compound): 424%
- reversal of neuropathic pain induced by spinal nerve ligation [2]: can reverse neuropathic pain
- 50% paw withdrawal threshold [2, 9]: 23 to 25 g
- 50% paw withdrawal threshold [2, 10]: about 35 g
- reversal of acute pain induced by capsaicin injection [3]: can reverse acute pain
- 50% paw withdrawal threshold [3, 5]: 40 g
- 50% paw withdrawal threshold [3, 6]: ~50 g

SMILES: N#CC(C(=S)Nc1ccc([N+](=O)[O-])cc1)=C(O)C1CC1 [Example 4, 2-Cyano-3-cyclopropyl-3-hydroxy-N-(4-nitro-phenyl)-thioacrylamide]
- pIC50 [1]: 5.06
- reversal of neuropathic pain induced by spinal nerve ligation [2]: can reverse neuropathic pain
- 50% paw withdrawal threshold [2, 9]: 30 g
- 50% paw withdrawal threshold [2, 10]: ~50 g

SMILES: N#CC(C(=S)Nc1ccc(SC(F)(F)F)cc1)=C(O)C1CC1 [Example 5, 2-Cyano-3-cyclopropyl-3-hydroxy-N-(4-trifluoromethylsulfanyl-phenyl)-thioacrylamide]
- pIC50 [1]: 5.11
- GABAA α3β3γ2 normalized percent current (human GABAA α3β3γ2; 10 μM test compound): 315%
- GABAA α2β3γ2 normalized percent current (human GABAA α2β3γ2; 10 μM test compound): 453%
- GABAA α1β3γ2 normalized percent current (human GABAA α1β3γ2; 10 μM test compound): 707%

SMILES: Cc1cc(NC(=S)C(C#N)=C(O)C2CC2)ccc1C#N [Example 6, 2-Cyano-N-(4-cyano-3-methyl-phenyl)-3-cyclopropyl-3-hydroxy-thioacrylamide]
- pIC50 [1]: 5.10
- GABAA α3β3γ2 normalized percent current (human GABAA α3β3γ2; 10 μM test compound): 357%
- GABAA α2β3γ2 normalized percent current (human GABAA α2β3γ2; 10 μM test compound): 286%
- GABAA α1β3γ2 normalized percent current (human GABAA α1β3γ2; 10 μM test compound): 338%
- reversal of neuropathic pain induced by spinal nerve ligation [2]: can reverse neuropathic pain
- 50% paw withdrawal threshold [2, 10]: ~40 g
- reversal of acute pain induced by capsaicin injection [3]: can reverse acute pain
- 50% paw withdrawal threshold [3, 7]: 35 g
- 50% paw withdrawal threshold [3, 8]: 25 g

SMILES: N#CC(C(=S)Nc1ccc(C#N)cc1)=C(O)C1CC1 [Example 7, 2-Cyano-N-(4-cyano-phenyl)-3-cyclopropyl-3-hydroxy-thioacrylamide]
- pIC50 [1]: 5.02

SMILES: N#CC(C(=S)Nc1ccc([S+]([O-])C(F)(F)F)cc1)=C(O)C1CC1 (stereo not shown) [Example 8, 2-Cyano-3-cyclopropyl-3-hydroxy-N-(4-trifluoromethanesulfinyl-phenyl)-thioacrylamide]
- pIC50 [1]: 4.99

SMILES: N#CC(C(=S)Nc1ccc(S(=O)(=O)C(F)(F)F)cc1)=C(O)C1CC1 [Example 9, 2-Cyano-3-cycopropyl-3-hydroxy-N-(4-trifluoromethanesulfonyl-phenyl)-thioacrylamide]
- pIC50 [1]: 5.30
- GABAA α3β3γ2 normalized percent current (human GABAA α3β3γ2; 10 μM test compound): 328%
- GABAA α2β3γ2 normalized percent current (human GABAA α2β3γ2; 10 μM test compound): 259%
- GABAA α1β3γ2 normalized percent current (human GABAA α1β3γ2; 10 μM test compound): 286%
